Consider one molecule from article PMC12833730, “Discovery of a First‐in‐Class Covalent Allosteric SHP1 Inhibitor with Immunotherapeutic Activity” (Angewandte Chemie (International Ed. in English), 2025).

The subject of test [1] is SHP1 KO Jurkat T cells. Kind of test: TCR-LCK signaling in SHP1 KO cells. Format: cell-based. As to the method:
Supernatants from lysed cells were reduced, treated with iodoacetamide to cap thiol residues, and digested by trypsin for bottom‐up proteomics analysis. […] LCK is the direct substrate of SHP1 and ERK1/2, and PLCγ is the downstream effector protein of LCK‐mediated TCR signaling. […] Statistical analyses were performed with Graphpad Prism software 10.4.2 through the one‐way ANOVA test using Turkey post‐hoc comparison. ****p < 0.0001 was considered significant.
To further confirm M029 cellular target engagement, we investigated the effect of M029 on T cell function. SHP1 plays a negative role in T cells, and deletion of SHP1 in T cells lowers the activation threshold and enhances antitumor immunity.^[ [30], [31], [32], [33] ^] Mechanistically, SHP1 attenuates T cell receptor (TCR) signaling via dephosphorylation of the lymphocyte‐specific protein tyrosine kinase LCK.^[ [31], [84], [85], [86] ^] T cell activation leads to increased expression and secretion of interleukin 2 (IL‐2)^[ [87] ^] while the removal of SHP1 in T cells enhances IL‐2 production, cell proliferation, and cytolysis capacity.^[ [30], [32] ^] Accordingly, we sought to assess the impact of targeting SHP1 with M029 on TCR‐LCK signaling and T cell activation. […] M029 also dose‐dependently promoted IL‐2 production (Figure 4c). […]

Test [2] has as its system whole proteome in Jurkat T cells. The experiment in a line: Chemoproteomic maleimide-biotin competition. Format: cell-based, human. As to the method:
To further define the selectivity of M029 for SHP1 and assess its cellular target engagement, a chemoproteomic investigation was performed to identify Cys residues protected by M029 from biotin‐tagged maleimide from the whole proteome in Jurkat T cells.^[ [79] ^] Since proteins labeled by M029 will be prevented from capture by the maleimide‐biotin probe, M029‐modified proteins can be readily identified by determining the ratio between the maleimide‐biotin‐bound proteins in the absence and presence of M029. […] The modest observed off‐target reactivity of M029 is not uncommon for targeted covalent inhibitors, including those FDA‐approved covalent drugs targeting EGFR (Osimertinib),^[ [80], [81] ^] BTK (Ibrutinib),^[ [82] ^] and KRAS (Sotorasib),^[ [83] ^] which also modify other proteins in addition to the intended targets. […]
For chemical proteomics studies, Cells were placed in 1 mL urea lysis buffer (100 mM Tris-HCl, pH 8, 8 M urea) and sonicated on ice for three 1-min rounds at 15% amplitude. […] Total protein concentrations were determined using the bicinchoninic acid (BCA) protein assay kit (Thermo Scientific Pierce, Rockford, IL). […]
Mal-biotin labeled peptides were diluted in 1 mL of PBS with 50 μL of High-Capacity NeutrAvidin slurry (Thermo Scientific). […] The peptide samples were analyzed by using an Evosep One LC coupled to a timsTOF HT mass spectrometer (Bruker). […]

Entries after “also recorded” stand apart in the source; their conditions may differ.

`N#Cc1ccsc1NS(=O)(=O)c1ccc(NC(=O)CCl)cc1` [M029, 2-Chloro-N-(4-(N-(3-cyanothiophen-2-yl)sulfamoyl)phenyl)acetamide]: the “LCK, PLCγ, and ERK1/2 phosphorylation in SHP1-deleted cells” value in test [1] is recorded as “abolished; also recorded: unable to alter”. Besides, the “rank of SHP1 (Cys480) among M029-labeled proteins” value in test [2] (>2700 peptide fragments identified) is listed as “second most”. Besides, the “number of proteins significantly blocked from maleimide modification” value in test [2] (cutoff 10-fold, p 0.05) is reported as “five”.
